We go through 21 compounds from PubChem BioAssay AID328 (DTP/NCI, 2004).

Values joined by “and” are separate entries in the source; they are usually repeats but may differ in a detail not shown here. Identical values can stand only once. Inconclusive results and toxic doses are left out.

In this experiment the test system is BDF1 mice, P388 leukemia ip, median survival T/C. Put plainly: NCI In Vivo Anticancer Drug Screen. Data for tumor model P388 Leukemia (intraperitoneal) in B6D2F1 (BDF1) mice. To be noted: endpoint: median survival time, higher = longer survival. Put shortly:
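Read-out is survival of treated animals expressed relative to the vehicle group, as a T/C ratio.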

Where [1] appears, read: dose: 100.0 mg/kg/injection, schedule: Q04DX003 (ip), vehicle: saline with Tween-80.
Setting [2] is: dose: 200.0 mg/kg/injection, schedule: Q04DX003 (ip), vehicle: saline with Tween-80.
Where [3] appears, read: dose: 400.0 mg/kg/injection, schedule: Q04DX003 (ip), vehicle: saline with Tween-80.
[4] abbreviates: dose: 50.0 mg/kg/injection, schedule: Q01DX009 (ip), vehicle: saline with Tween-80.
The mark [5] stands for this setting: dose: 100.0 mg/kg/injection, schedule: Q01DX009 (ip), vehicle: saline with Tween-80.
The mark [6] stands for this setting: dose: 200.0 mg/kg/injection, schedule: Q01DX009 (ip), vehicle: saline with Tween-80.
Where [7] appears, read: dose: 400.0 mg/kg/injection, schedule: Q01DX009 (ip), vehicle: saline with Tween-80.
[8] abbreviates: dose: 50.0 mg/kg/injection, schedule: Q04DX003 (ip), vehicle: saline with Tween-80.
The mark [9] stands for this setting: dose: 25.0 mg/kg/injection, schedule: Q01DX009 (ip), vehicle: saline.
[10] abbreviates: dose: 50.0 mg/kg/injection, schedule: Q01DX009 (ip), vehicle: saline.
Setting [11] is: dose: 50.0 mg/kg/injection, schedule: Q04DX003 (ip), vehicle: saline.
Setting [12] is: dose: 100.0 mg/kg/injection, schedule: Q01DX009 (ip), vehicle: saline.
Where [13] appears, read: dose: 100.0 mg/kg/injection, schedule: Q04DX003 (ip), vehicle: saline.
Where [14] appears, read: dose: 50.0 mg/kg/injection, schedule: Q01DX009 (ip), vehicle: Klucel (hydroxypropylcellulose) (HPC).
The mark [15] stands for this setting: dose: 100.0 mg/kg/injection, schedule: Q01DX009 (ip), vehicle: Klucel (hydroxypropylcellulose) (HPC).
The mark [16] stands for this setting: dose: 200.0 mg/kg/injection, schedule: Q01DX009 (ip), vehicle: Klucel (hydroxypropylcellulose) (HPC).
Setting [17] is: dose: 25.0 mg/kg/injection, schedule: Q01DX009 (ip), vehicle: saline with Tween-80.

In the case of `N#CC(CC(=O)OCc1ccccc1)NC(=O)OCc1ccccc1` (stereo not drawn), the T/C by setting is: under setting [1], 95 % of control; under setting [2], 90 % of control; under setting [3], 100 % of control.
Turning to `CN1NCc2cncnc21`, the T/C is, setting by setting: under setting [4], 90 % of control; under setting [5], 99 % of control; under setting [6], 99 % of control; under setting [7], 90 % of control.
Take `CCCCCCN(CCCCCC)P(=O)(N1CC1)N1CC1`: the T/C is, setting by setting: (dose: 14.0 mg/kg/injection, schedule: Q04DX003 (ip), vehicle: saline) 95 % of control; (dose: 21.0 mg/kg/injection, schedule: Q04DX003 (ip), vehicle: saline) 104 % of control; (dose: 33.0 mg/kg/injection, schedule: Q04DX003 (ip), vehicle: saline with Tween-80) 100 % of control and 118 % of control; under setting [8], 150 % of control; (dose: 75.0 mg/kg/injection, schedule: Q04DX003 (ip), vehicle: saline with Tween-80) 181 % of control.
With `CC1=CCS(=O)(=O)C1`, the T/C (dose: 25.0 mg/kg/injection, schedule: Q01DX001 (ip), vehicle: other) is 95 % of control; the T/C under setting [9] was 113 % of control; the T/C (dose: 25.0 mg/kg/injection, schedule: Q04DX003 (ip), vehicle: saline) is 91 % of control; the T/C (dose: 50.0 mg/kg/injection, schedule: Q01DX001 (ip), vehicle: other) was 86 % of control; the T/C under setting [10] is 100 % of control; the T/C under setting [11] is 87 % of control. In addition, the T/C is 95 % of control (dose: 100.0 mg/kg/injection, schedule: Q01DX001 (ip), vehicle: other); 109 % of control under setting [12]; 91 % of control under setting [13].
Take `CC1=C(C)C2(C)C1(C)C1(C)C(C)=C(C)C21C` (stereo not drawn): the T/C reads like this: under setting [14], 100 % of control; under setting [15], 90 % of control; under setting [16], 105 % of control.
In the case of `CCN1C(=O)C(=O)c2ccccc21`, the T/C (dose: 75.0 mg/kg/injection, schedule: Q01DX009 (ip), vehicle: saline with Tween-80) is 86 % of control.
With `CCN(CC)c1cc(Cl)c(C=O)cc1[N+](=O)[O-]`, the T/C is 95 % of control under setting [15]; 104 % of control under setting [16]; 95 % of control (dose: 400.0 mg/kg/injection, schedule: Q01DX009 (ip), vehicle: Klucel (hydroxypropylcellulose) (HPC)).
With `COc1cc2ccc3c4cc5c(cc4c[n+](C)c3c2cc1OC)OCO5`, the T/C was 122 % of control (dose: 20.0 mg/kg/injection, schedule: Q01DX009 (ip), vehicle: saline); 154 % of control and 159 % of control (dose: 40.0 mg/kg/injection, schedule: Q01DX009 (ip), vehicle: saline); 113 % of control (dose: 80.0 mg/kg/injection, schedule: Q01DX009 (ip), vehicle: saline); 86 % of control (dose: 120.0 mg/kg/injection, schedule: Q01DX009 (ip), vehicle: saline).
For `C=C(C)C(=O)OCC1CO1` (stereo not drawn), the T/C was 112 % of control (dose: 25.0 mg/kg/injection, schedule: Q01DX009 (ip), vehicle: water); 96 % of control (dose: 50.0 mg/kg/injection, schedule: Q01DX009 (ip), vehicle: water); 100 % of control (dose: 50.0 mg/kg/injection, schedule: Q01DX010 (ip), vehicle: saline); 99 % of control (dose: 100.0 mg/kg/injection, schedule: Q01DX009 (ip), vehicle: water); 100 % of control (dose: 100.0 mg/kg/injection, schedule: Q01DX010 (ip), vehicle: saline); 122 % of control (dose: 200.0 mg/kg/injection, schedule: Q01DX009 (ip), vehicle: water). Besides, the T/C (dose: 200.0 mg/kg/injection, schedule: Q01DX010 (ip), vehicle: saline) is 104 % of control.
On to `O=C1OCC/C1=C1/Nc2ccccc2NC1=O`, for which the T/C by setting is: (dose: 12.5 mg/kg/injection, schedule: Q01DX009 (ip), vehicle: saline with Tween-80) 105 % of control; under setting [17], 100 % of control; under setting [4], 96 % of control.
With `O=C(O)c1cc(Br)cc(SSc2cc(Br)cc(C(=O)O)c2O)c1O`, the T/C is, setting by setting: under setting [17], 103 % of control; under setting [4], 94 % of control; under setting [5], 106 % of control.
For the compound `COc1ccccc1C(=O)/C=C\c1ccc(OCc2ccccc2)cc1`, the T/C was 89 % of control under setting [4], 86 % of control under setting [5] and 87 % of control under setting [6].
As to `COc1ccc(C=Nc2cccc3ccccc23)cc1`, the T/C by setting is: (dose: 100.0 mg/kg/injection, schedule: Q01DX001 (ip), vehicle: saline sonified) 100 % of control; (dose: 200.0 mg/kg/injection, schedule: Q01DX001 (ip), vehicle: saline sonified) 100 % of control; (dose: 400.0 mg/kg/injection, schedule: Q01DX001 (ip), vehicle: saline sonified) 104 % of control.
Turning to `O=C1c2ccccc2S(=O)(=O)c2cc(-c3nn[nH]n3)ccc21`, the T/C under setting [14] was 106 % of control, the T/C under setting [15] is 94 % of control and the T/C under setting [16] is 104 % of control.
As to `COC(=O)c1cc(C(C)=O)ccc1OC(=O)c1ccccc1`, the T/C is 118 % of control under setting [5]; 100 % of control under setting [1]; 104 % of control under setting [6]; 100 % of control under setting [2]; 104 % of control under setting [7]; 100 % of control under setting [3].
For the compound `O=C1NC(=O)C(c2ccc(O)cc2)N1` (stereo not drawn), the T/C by setting is: under setting [1], 100 % of control; under setting [2], 109 % of control; under setting [3], 118 % of control.
As to `Cc1cc(N/N=C/c2ccc(N(CCCl)CCCl)cc2)c2cc3c(cc2n1)OCO3`, the T/C by setting is: (dose: 12.5 mg/kg/injection, schedule: Q04DX003 (ip), vehicle: saline with Tween-80) 114 % of control; (dose: 25.0 mg/kg/injection, schedule: Q04DX003 (ip), vehicle: saline with Tween-80) 105 % of control; under setting [8], 115 % of control.
On to `NOCc1cccc(CON)c1`, for which the T/C reads like this: (dose: 12.5 mg/kg/injection, schedule: Q01DX009 (ip), vehicle: saline) 100 % of control; under setting [9], 87 % of control; under setting [10], 91 % of control; under setting [11], 91 % of control; under setting [13], 91 % of control; (dose: 200.0 mg/kg/injection, schedule: Q04DX003 (ip), vehicle: saline) 91 % of control.
Regarding `CC1OC(n2ccc(NC(=O)c3ccc(NC(=O)C(C)(N)CO)cc3)nc2=O)CC(O)C1OC1OC(C)C(N(C)C)C(O)C1O` (stereo not drawn), the T/C (dose: 2.5 mg/kg/injection, schedule: Q01DX009 (ip), vehicle: saline) was 106 % of control; the T/C (dose: 5.0 mg/kg/injection, schedule: Q01DX009 (ip), vehicle: saline) is 103 % of control; the T/C (dose: 10.0 mg/kg/injection, schedule: Q01DX009 (ip), vehicle: saline) is 111 % of control.
With `CCC(=O)O[C@H]1CC[C@H]2[C@@H]3[C@H](C)CC4=CC(=O)CC[C@]4(C)[C@H]3CC[C@]12C`, the T/C is 95 % of control under setting [12]; 100 % of control (dose: 200.0 mg/kg/injection, schedule: Q01DX009 (ip), vehicle: saline); 115 % of control (dose: 400.0 mg/kg/injection, schedule: Q01DX009 (ip), vehicle: saline).
`Cc1cc(=O)[nH]c(N/N=C/c2ccco2)n1`: the T/C was 108 % of control (dose: 12.5 mg/kg/injection, schedule: Q01DX009 (ip), vehicle: gum acacia); 104 % of control (dose: 25.0 mg/kg/injection, schedule: Q01DX009 (ip), vehicle: gum acacia); 108 % of control (dose: 50.0 mg/kg/injection, schedule: Q01DX009 (ip), vehicle: gum acacia); 109 % of control (dose: 100.0 mg/kg/injection, schedule: Q04DX003 (ip), vehicle: gum acacia); 118 % of control (dose: 200.0 mg/kg/injection, schedule: Q04DX003 (ip), vehicle: gum acacia).
